The values that follow come from patent US9751926B2 (priority 2013, dated 2017).

One data set addresses T1, human GLP-1 receptor (Homo sapiens, UniProt P43220).
T1 construct: expressed in transfected cells
The experiment in a line: cAMP response (HTRF) of HEK-293 cells stably expressing human GLP-1 receptor. In kind it is cell-based. Particulars: Table 6; formed cAMP; read-out: EC50 hGLP-1 R. The method, then: (§1) cAMP content of cells was determined using a kit from Cisbio Corp. (cat. no. 62AM4PEC) based on HTRF (Homogenous Time Resolved Fluorescence). For preparation, cells were split into T175 culture flasks and grown overnight to near confluency in medium (DMEM/10% FBS). Medium was then removed and cells washed with PBS lacking calcium and magnesium, followed by proteinase treatment with accutase (Sigma-Aldrich cat. no. A6964). Detached cells were washed and resuspended in assay buffer (1×HBSS; 20 mM HEPES, 0.1% BSA, 2 mM IBMX) and cellular density determined. They were then diluted to 400000 cells/ml and 25 μl-aliquots dispensed into the wells of 96-well plates. For measurement, 25 μl of test compound in assay buffer was added to the wells, followed by incubation for 30 minutes at room temperature.
A general note: Time-resolved FRET reads energy transfer from a long-lived donor to a nearby acceptor.

A further data set addresses T2, human glucagon receptor (Homo sapiens, UniProt P47871).
T2 construct: expressed in transfected cells
The experiment in a line: cAMP response (HTRF) of HEK-293 cells stably expressing human glucagon receptor. In kind it is cell-based. Particulars: formed cAMP. The method, then: as §1

The nature of a further data set: physchem. It is filed as physicochemical.
Another data set has as its target T3, human GIP receptor (Homo sapiens, UniProt P48546).
T3 construct: expressed in transfected cells
T3 sequence (P48546 22-466): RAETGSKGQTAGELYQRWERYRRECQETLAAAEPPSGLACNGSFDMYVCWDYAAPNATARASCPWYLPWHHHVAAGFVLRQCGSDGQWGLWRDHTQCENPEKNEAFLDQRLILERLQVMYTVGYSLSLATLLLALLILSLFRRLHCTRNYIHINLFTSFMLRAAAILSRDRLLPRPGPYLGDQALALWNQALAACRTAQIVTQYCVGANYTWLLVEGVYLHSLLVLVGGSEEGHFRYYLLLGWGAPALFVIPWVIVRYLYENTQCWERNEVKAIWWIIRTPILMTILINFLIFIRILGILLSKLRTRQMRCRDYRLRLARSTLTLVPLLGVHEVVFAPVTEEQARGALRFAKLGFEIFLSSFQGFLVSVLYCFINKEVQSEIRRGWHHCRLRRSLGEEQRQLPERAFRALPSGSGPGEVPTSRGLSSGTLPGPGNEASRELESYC
Nature of the data set: cAMP response (HTRF) of HEK-293 cells stably expressing human GIP receptor. In kind it is cell-based. The conditions noted are these: Table 1; formed cAMP; read-out: EC50 hGIP R. The method, then:
as §1

Where [1] appears, read: Table 6, read-out: EC50 hGLUC R.

The structures appear in SMILES notation. ≈ marks a conversion by molar mass, not a printed value. Like-named read-outs stand apart in the source and are kept apart here.

T1 sequence (P43220 24-463): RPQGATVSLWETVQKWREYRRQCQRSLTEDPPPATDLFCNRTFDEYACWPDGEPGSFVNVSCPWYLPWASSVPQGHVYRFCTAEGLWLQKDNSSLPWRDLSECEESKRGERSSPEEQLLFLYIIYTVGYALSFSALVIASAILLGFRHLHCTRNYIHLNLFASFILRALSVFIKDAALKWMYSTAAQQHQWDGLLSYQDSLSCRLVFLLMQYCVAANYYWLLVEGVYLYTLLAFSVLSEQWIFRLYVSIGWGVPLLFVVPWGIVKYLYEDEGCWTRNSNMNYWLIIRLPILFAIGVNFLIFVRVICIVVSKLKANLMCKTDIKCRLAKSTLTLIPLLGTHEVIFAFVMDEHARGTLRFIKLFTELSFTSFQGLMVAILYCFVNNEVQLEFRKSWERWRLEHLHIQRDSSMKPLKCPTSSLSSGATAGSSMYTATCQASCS
T2 sequence (P47871 26-477): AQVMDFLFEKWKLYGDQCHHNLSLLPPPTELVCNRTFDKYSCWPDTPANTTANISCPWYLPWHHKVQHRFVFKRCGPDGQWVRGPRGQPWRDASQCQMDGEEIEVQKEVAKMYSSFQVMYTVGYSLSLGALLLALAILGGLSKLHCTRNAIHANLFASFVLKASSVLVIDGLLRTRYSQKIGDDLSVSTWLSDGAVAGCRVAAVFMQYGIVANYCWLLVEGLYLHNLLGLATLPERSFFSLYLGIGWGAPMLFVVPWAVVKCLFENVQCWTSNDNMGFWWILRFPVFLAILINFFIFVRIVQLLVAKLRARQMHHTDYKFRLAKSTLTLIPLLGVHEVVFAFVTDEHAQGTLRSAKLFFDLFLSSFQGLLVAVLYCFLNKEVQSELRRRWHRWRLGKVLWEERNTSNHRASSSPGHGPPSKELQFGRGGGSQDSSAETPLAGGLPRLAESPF

What is called EC50 is the midpoint of the concentration-response curve. By solubility is commonly meant how much of the substance goes into solution per volume. A higher solubility goes with much dissolved substance. For the molecule `CCCC[C@H](NC(=O)[C@H](CCC(N)=O)NC(=O)[C@@H](NC(=O)[C@H](CO)NC(=O)[C@H](CC(C)C)NC(=O)[C@H](CC(=O)O)NC(=O)[C@H](CO)NC(=O)[C@@H](NC(=O)[C@H](Cc1ccccc1)NC(=O)[C@@H](NC(=O)CNC(=O)[C@H](CCC(=O)O)NC(=O)C(C)(C)NC(=O)[C@@H](N)Cc1ccc(O)cc1)[C@@H](C)O)[C@@H](C)O)[C@@H](C)CC)C(=O)N[C@@H](CCC(=O)O)C(=O)N[C@@H](CCCCN)C(=O)N[C@@H](CCC(=O)O)C(=O)N[C@@H](C)C(=O)N[C@H](C(=O)N[C@@H](CCCNC(=N)N)C(=O)N[C@@H](CC(C)C)C(=O)N[C@@H](Cc1ccccc1)C(=O)N[C@H](C(=O)N[C@@H](CCC(=O)O)C(=O)N[C@@H](Cc1c[nH]c2ccccc12)C(=O)N[C@@H](CC(C)C)C(=O)N[C@@H](CCCCN)C(=O)N[C@@H](C)C(=O)NCC(=O)NCC(=O)N1CCC[C@H]1C(=O)N[C@@H](CO)C(=O)N[C@@H](CO)C(=O)NCC(=O)N[C@@H](C)C(=O)N1CCC[C@H]1C(=O)N1CCC[C@H]1C(=O)N1CCC[C@H]1C(=O)N[C@@H](CO)C(N)=O)[C@@H](C)CC)C(C)C` [compound 11], the EC50 was 0.001 nM on human GLP-1 receptor and over 1000 nM on human glucagon receptor (setting [1]). Also, the solubility at 2 h in the data set “physchem” (pH 4.5) is 911 µg/mL (≈ 219 µM); in the data set “physchem” (pH 7.4) it was over 1000 µg/mL.
On the same counts, the results for `CCCC[C@H](NC(=O)[C@H](CCC(N)=O)NC(=O)[C@@H](NC(=O)[C@H](CO)NC(=O)[C@H](CC(C)C)NC(=O)[C@H](CC(=O)O)NC(=O)[C@H](CO)NC(=O)[C@@H](NC(=O)[C@H](Cc1ccccc1)NC(=O)[C@@H](NC(=O)CNC(=O)[C@H](CCC(=O)O)NC(=O)C(C)(C)NC(=O)[C@@H](N)Cc1ccc(O)cc1)[C@@H](C)O)[C@@H](C)O)[C@@H](C)CC)C(=O)N[C@@H](CCC(=O)O)C(=O)N[C@@H](CCCCN)C(=O)N[C@@H](CCC(=O)O)C(=O)N[C@@H](C)C(=O)N[C@H](C(=O)N[C@@H](CCCNC(=N)N)C(=O)N[C@@H](CC(C)C)C(=O)N[C@@H](Cc1ccccc1)C(=O)N[C@H](C(=O)N[C@@H](CCC(=O)O)C(=O)N[C@@H](Cc1c[nH]c2ccccc12)C(=O)N[C@@H](CC(C)C)C(=O)N[C@@H](CCCCN)C(=O)N[C@@H](C)C(=O)NCC(=O)NCC(=O)N1CCC[C@H]1C(=O)N[C@@H](CO)C(=O)N[C@@H](CO)C(=O)NCC(=O)N[C@@H](C)C(=O)N1CCC[C@H]1C(=O)N1CCC[C@H]1C(=O)N1CCC[C@H]1C(=O)N[C@@H](CO)C(=O)N[C@@H](CCCCN)C(N)=O)[C@@H](C)CC)C(C)C` [compound 12] are 0.0013 nM, over 1000 nM, 943 µg/mL (≈ 220 µM) and 848 µg/mL (≈ 198 µM).
`CC[C@H](C)[C@H](NC(=O)[C@H](CO)NC(=O)[C@H](CC(C)C)NC(=O)[C@H](CC(=O)O)NC(=O)[C@H](CO)NC(=O)[C@@H](NC(=O)[C@H](Cc1ccccc1)NC(=O)[C@@H](NC(=O)CNC(=O)[C@H](CCC(=O)O)NC(=O)C(C)(C)NC(=O)[C@@H](N)Cc1ccc(O)cc1)[C@@H](C)O)[C@@H](C)O)C(=O)N[C@@H](CCC(N)=O)C(=O)N[C@@H](CC(C)C)C(=O)N[C@@H](CCC(=O)O)C(=O)N[C@@H](CCCCN)C(=O)N[C@@H](CCC(=O)O)C(=O)N[C@@H](C)C(=O)N[C@H](C(=O)N[C@@H](CCCNC(=N)N)C(=O)N[C@@H](CC(C)C)C(=O)N[C@@H](Cc1ccccc1)C(=O)N[C@H](C(=O)N[C@@H](CCC(=O)O)C(=O)N[C@@H](Cc1c[nH]c2ccccc12)C(=O)N[C@@H](CC(C)C)C(=O)N[C@@H](CCCCN)C(=O)N[C@@H](C)C(=O)NCC(=O)NCC(=O)N1CCC[C@H]1C(=O)N[C@@H](CO)C(=O)N[C@@H](CO)C(=O)NCC(=O)N[C@@H](C)C(=O)N1CCC[C@H]1C(=O)N1CCC[C@H]1C(=O)N1CCC[C@H]1C(=O)N[C@@H](CO)C(N)=O)[C@@H](C)CC)C(C)C` [SEQ ID NO 10, Y-Aib-EGTFTSDLSIQLEKEAVRLFIEWLKAGGPSSGAPPPS-NH2]: the EC50 on human GIP receptor is 12.5 nM; at human glucagon receptor (Table 1, read-out: EC50 hGlucagon R), over 10000 nM. For the same molecule, the solubility in the data set “physchem” (pH 4.5) was 934 µg/mL (≈ 224 µM); in “physchem” (pH 7.4), over 1000 µg/mL.
As to `CC[C@H](C)[C@H](NC(=O)[C@H](CO)NC(=O)[C@H](CC(C)C)NC(=O)[C@H](CC(=O)O)NC(=O)[C@H](CO)NC(=O)[C@@H](NC(=O)[C@H](Cc1ccccc1)NC(=O)[C@@H](NC(=O)CNC(=O)[C@H](CCC(=O)O)NC(=O)C(C)(C)NC(=O)[C@@H](N)Cc1ccc(O)cc1)[C@@H](C)O)[C@@H](C)O)C(=O)N[C@@H](CCC(N)=O)C(=O)N[C@@H](CC(C)C)C(=O)N[C@@H](CCC(=O)O)C(=O)N[C@@H](CCC(=O)O)C(=O)N[C@@H](CCC(=O)O)C(=O)N[C@@H](C)C(=O)N[C@H](C(=O)N[C@@](C)(CCCCN)C(=O)N[C@@H](CC(C)C)C(=O)N[C@@H](Cc1ccccc1)C(=O)N[C@H](C(=O)N[C@@H](CCC(=O)O)C(=O)N[C@@H](Cc1c[nH]c2ccccc12)C(=O)N[C@@H](CC(C)C)C(=O)N[C@@H](CCCCN)C(=O)N[C@@H](C)C(=O)NCC(=O)NCC(=O)N1CCC[C@H]1C(=O)N[C@@H](CO)C(=O)N[C@@H](CO)C(=O)NCC(=O)N[C@@H](C)C(=O)N1CCC[C@H]1C(=O)N1CCC[C@H]1C(=O)N1CCC[C@H]1C(=O)N[C@@H](CO)C(N)=O)[C@@H](C)CC)C(C)C` [compound 17], the results for the concentration for a half-maximal effect (EC50) on human GLP-1 receptor and at human glucagon receptor (setting [1]) were 0.0011 nM and over 1000 nM, respectively.
The like results for `CC[C@H](C)[C@H](NC(=O)[C@H](CO)NC(=O)[C@H](CC(C)C)NC(=O)[C@H](CC(=O)O)NC(=O)[C@H](CO)NC(=O)[C@@H](NC(=O)[C@H](Cc1ccccc1)NC(=O)[C@@H](NC(=O)CNC(=O)[C@H](CCC(=O)O)NC(=O)C(C)(C)NC(=O)[C@@H](N)Cc1ccc(O)cc1)[C@@H](C)O)[C@@H](C)O)C(=O)N[C@@H](CCC(N)=O)C(=O)N[C@@H](CC(C)C)C(=O)N[C@@H](CCC(=O)O)C(=O)N[C@@H](CCC(=O)O)C(=O)N[C@@H](CCC(=O)O)C(=O)N[C@@H](C)C(=O)N[C@H](C(=O)N[C@@](C)(CCCN)C(=O)N[C@@H](CC(C)C)C(=O)N[C@@H](Cc1ccccc1)C(=O)N[C@H](C(=O)N[C@@H](CCC(=O)O)C(=O)N[C@@H](Cc1c[nH]c2ccccc12)C(=O)N[C@@H](CC(C)C)C(=O)N[C@@H](CCCCN)C(=O)N[C@@H](C)C(=O)NCC(=O)NCC(=O)N1CCC[C@H]1C(=O)N[C@@H](CO)C(=O)N[C@@H](CO)C(=O)NCC(=O)N[C@@H](C)C(=O)N1CCC[C@H]1C(=O)N1CCC[C@H]1C(=O)N1CCC[C@H]1C(=O)N[C@@H](CO)C(N)=O)[C@@H](C)CC)C(C)C` [compound 19] were, in that order, 0.0012 nM and over 1000 nM.
On the same counts, the results for `CC[C@H](C)[C@H](NC(=O)[C@H](CO)NC(=O)[C@H](CC(C)C)NC(=O)[C@H](CC(=O)O)NC(=O)[C@H](CO)NC(=O)[C@@H](NC(=O)[C@H](Cc1ccccc1)NC(=O)[C@@H](NC(=O)CNC(=O)[C@H](CCC(=O)O)NC(=O)C(C)(C)NC(=O)[C@@H](N)Cc1ccc(O)cc1)[C@@H](C)O)[C@@H](C)O)C(=O)N[C@@H](CCC(N)=O)C(=O)N[C@@H](CC(C)C)C(=O)N[C@@H](CCC(=O)O)C(=O)N[C@@H](CCC(=O)O)C(=O)N[C@@H](CCC(=O)O)C(=O)N[C@@H](C)C(=O)N[C@H](C(=O)NC(C)(C)C(=O)N[C@@H](CC(C)C)C(=O)N[C@@H](Cc1ccccc1)C(=O)N[C@H](C(=O)N[C@@H](CCC(=O)O)C(=O)N[C@@H](Cc1c[nH]c2ccccc12)C(=O)N[C@@H](CC(C)C)C(=O)N[C@@H](CCCCN)C(=O)N[C@@H](C)C(=O)NCC(=O)NCC(=O)N1CCC[C@H]1C(=O)N[C@@H](CO)C(=O)N[C@@H](CO)C(=O)NCC(=O)N[C@@H](C)C(=O)N1CCC[C@H]1C(=O)N1CCC[C@H]1C(=O)N1CCC[C@H]1C(=O)N[C@@H](CO)C(N)=O)[C@@H](C)CC)C(C)C` [compound 16] are 0.001 nM and over 1000 nM.
